{"source": "ChEMBL document CHEMBL1201862", "about": "“PubChem BioAssay data set” (2004)", "key": {"[1]": {"molecular_target": "T1, Lysine-specific demethylase 4C (Homo sapiens, UniProt Q9H3R0)", "T1 sequence (Q9H3R0 whole entry)": "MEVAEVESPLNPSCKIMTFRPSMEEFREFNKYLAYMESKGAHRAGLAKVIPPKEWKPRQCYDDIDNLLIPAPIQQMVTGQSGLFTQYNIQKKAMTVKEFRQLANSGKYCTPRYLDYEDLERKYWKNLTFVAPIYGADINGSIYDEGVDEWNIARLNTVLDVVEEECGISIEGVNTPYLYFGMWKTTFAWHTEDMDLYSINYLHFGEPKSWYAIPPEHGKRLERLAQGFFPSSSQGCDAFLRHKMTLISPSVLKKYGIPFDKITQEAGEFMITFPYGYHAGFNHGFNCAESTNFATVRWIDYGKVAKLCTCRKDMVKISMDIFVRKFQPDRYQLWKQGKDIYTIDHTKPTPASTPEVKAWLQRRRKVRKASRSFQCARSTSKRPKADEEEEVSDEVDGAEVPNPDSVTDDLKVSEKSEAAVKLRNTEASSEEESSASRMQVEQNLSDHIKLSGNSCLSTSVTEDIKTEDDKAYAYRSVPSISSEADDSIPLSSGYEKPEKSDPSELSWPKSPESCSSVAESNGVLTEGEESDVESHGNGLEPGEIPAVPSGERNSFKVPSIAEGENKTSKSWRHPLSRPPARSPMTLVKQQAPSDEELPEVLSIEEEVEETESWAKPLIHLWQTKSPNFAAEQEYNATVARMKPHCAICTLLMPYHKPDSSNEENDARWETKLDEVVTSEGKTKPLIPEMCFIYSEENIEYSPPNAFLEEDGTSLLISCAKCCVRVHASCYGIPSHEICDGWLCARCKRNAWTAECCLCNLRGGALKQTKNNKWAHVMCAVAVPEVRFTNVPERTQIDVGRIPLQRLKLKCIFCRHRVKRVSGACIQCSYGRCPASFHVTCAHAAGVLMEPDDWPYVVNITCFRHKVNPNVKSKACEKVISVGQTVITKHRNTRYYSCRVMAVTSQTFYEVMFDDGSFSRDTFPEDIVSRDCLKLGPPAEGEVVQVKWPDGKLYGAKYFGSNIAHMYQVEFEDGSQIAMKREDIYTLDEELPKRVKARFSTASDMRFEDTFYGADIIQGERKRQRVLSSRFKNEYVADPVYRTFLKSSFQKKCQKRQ", "experiment": "GASC-1 (JMJD2C) histone demethylase inhibitors, dose response, biochemical, DELFIA europium, cherry-picked samples (AID 488835)", "assay_type": "functional"}, "[2]": {"molecular_target": "Mast/stem cell growth factor receptor Kit (Homo sapiens, UniProt P10721)", "sequence (P10721 whole entry)": "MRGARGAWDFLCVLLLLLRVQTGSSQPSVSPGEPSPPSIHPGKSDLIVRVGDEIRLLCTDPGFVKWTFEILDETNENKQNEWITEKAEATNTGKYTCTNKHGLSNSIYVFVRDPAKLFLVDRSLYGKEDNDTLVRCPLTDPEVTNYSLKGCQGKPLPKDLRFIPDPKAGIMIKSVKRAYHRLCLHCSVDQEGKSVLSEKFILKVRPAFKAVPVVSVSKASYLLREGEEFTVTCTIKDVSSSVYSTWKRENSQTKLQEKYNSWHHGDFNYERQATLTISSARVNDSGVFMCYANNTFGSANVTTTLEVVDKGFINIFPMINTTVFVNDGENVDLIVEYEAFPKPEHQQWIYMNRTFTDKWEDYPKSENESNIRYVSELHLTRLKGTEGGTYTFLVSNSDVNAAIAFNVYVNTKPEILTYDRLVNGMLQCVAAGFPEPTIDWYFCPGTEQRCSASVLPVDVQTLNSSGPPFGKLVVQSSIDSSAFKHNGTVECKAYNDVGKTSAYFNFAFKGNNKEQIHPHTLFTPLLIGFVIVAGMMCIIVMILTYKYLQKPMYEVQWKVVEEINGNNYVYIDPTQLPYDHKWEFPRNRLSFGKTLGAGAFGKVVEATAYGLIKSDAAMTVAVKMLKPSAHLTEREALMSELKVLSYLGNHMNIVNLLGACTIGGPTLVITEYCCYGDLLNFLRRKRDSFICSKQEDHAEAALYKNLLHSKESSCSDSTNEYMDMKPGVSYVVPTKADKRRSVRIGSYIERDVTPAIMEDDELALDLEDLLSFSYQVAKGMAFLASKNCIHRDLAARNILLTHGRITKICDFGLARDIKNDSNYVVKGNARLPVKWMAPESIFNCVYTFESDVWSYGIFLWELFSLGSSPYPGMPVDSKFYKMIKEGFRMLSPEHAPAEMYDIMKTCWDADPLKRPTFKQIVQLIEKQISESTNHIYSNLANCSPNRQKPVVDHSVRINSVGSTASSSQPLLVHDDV", "assay_type": "functional"}, "[3]": {"molecular_target": "MAP/microtubule affinity-regulating kinase 3 (Homo sapiens, UniProt P27448)", "sequence (P27448 whole entry)": "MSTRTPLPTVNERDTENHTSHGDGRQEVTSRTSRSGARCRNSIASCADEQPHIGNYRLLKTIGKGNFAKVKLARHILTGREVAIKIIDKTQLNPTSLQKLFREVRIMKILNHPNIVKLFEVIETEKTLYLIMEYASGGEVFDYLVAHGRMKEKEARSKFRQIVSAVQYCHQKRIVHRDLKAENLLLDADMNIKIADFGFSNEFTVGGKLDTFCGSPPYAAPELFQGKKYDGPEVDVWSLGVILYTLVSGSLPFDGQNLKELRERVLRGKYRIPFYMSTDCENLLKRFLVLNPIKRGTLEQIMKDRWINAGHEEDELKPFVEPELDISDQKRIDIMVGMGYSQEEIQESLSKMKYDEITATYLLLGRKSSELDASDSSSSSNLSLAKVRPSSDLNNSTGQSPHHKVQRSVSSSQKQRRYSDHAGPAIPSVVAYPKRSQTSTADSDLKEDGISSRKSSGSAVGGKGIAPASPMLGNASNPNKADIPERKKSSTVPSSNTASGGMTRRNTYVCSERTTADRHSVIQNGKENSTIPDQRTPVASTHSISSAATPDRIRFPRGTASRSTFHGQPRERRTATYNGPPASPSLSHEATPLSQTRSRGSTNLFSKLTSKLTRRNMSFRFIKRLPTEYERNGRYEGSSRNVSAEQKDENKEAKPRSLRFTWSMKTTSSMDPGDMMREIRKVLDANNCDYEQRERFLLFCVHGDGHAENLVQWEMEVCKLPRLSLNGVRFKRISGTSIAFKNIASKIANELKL", "assay_type": "functional"}, "[4]": {"molecular_target": "Mitogen-activated protein kinase 10 (Homo sapiens, UniProt P53779)", "sequence (P53779 whole entry)": "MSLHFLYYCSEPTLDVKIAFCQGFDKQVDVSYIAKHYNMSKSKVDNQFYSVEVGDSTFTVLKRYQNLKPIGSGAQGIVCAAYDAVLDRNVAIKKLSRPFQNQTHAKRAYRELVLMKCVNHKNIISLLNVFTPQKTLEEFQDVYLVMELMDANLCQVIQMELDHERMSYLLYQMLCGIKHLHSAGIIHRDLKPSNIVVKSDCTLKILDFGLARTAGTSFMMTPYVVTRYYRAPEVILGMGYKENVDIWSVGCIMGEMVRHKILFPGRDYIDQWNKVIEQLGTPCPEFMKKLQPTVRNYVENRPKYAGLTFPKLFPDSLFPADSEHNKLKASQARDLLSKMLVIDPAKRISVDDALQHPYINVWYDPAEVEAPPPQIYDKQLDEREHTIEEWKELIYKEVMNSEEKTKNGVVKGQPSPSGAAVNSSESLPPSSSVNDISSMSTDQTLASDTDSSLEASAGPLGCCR", "experiment": "Navigating the Kinome. Panel member name: MAPK10", "assay_type": "functional"}, "[5]": {"molecular_target": "Serine/threonine-protein kinase Chk1 (Homo sapiens, UniProt O14757)", "sequence (O14757 whole entry)": "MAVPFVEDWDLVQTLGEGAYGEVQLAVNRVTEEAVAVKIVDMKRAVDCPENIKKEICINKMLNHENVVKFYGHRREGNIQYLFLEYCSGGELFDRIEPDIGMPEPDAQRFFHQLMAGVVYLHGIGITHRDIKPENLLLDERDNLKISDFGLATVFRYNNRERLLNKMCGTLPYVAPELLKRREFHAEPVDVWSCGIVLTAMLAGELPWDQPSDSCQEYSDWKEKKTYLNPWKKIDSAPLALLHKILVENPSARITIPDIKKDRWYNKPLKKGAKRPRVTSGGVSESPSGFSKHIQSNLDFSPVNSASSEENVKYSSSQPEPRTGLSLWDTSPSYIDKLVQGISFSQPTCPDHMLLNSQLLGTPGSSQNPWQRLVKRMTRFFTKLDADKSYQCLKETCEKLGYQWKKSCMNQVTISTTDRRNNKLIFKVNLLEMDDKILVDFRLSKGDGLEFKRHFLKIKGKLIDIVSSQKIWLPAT", "assay_type": "functional"}, "[6]": {"molecular_target": "Serine/threonine-protein kinase Nek2 (Homo sapiens, UniProt P51955)", "sequence (P51955 whole entry)": "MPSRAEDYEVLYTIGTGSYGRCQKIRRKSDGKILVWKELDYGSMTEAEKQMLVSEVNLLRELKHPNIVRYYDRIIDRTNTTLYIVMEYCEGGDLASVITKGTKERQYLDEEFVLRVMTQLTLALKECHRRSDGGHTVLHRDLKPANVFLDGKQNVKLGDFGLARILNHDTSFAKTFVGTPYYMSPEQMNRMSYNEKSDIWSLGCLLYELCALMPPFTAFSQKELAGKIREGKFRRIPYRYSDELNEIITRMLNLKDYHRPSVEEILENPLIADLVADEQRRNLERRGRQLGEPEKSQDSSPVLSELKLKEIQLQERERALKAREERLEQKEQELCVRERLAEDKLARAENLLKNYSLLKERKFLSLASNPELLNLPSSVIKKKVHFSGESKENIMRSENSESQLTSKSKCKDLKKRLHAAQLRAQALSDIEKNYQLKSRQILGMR", "assay_type": "functional"}, "BJ [7]": {"tested_on": "BJ", "experiment": "cytotoxicity toward BJ-TERT fibroblasts, dose response, cell-based, RAS-independent, luminescence (AID 1933)", "assay_type": "functional", "conditions": "Homo sapiens"}, "BJ [8]": {"tested_on": "BJ", "experiment": "cells", "assay_type": "functional, cell-based", "conditions": "Homo sapiens"}, "P388/ADR": {"tested_on": "P388/ADR", "experiment": "cells", "assay_type": "functional", "conditions": "Mus musculus"}, "SN12K1": {"tested_on": "SN12K1", "experiment": "cells", "assay_type": "functional", "conditions": "Homo sapiens"}, "P388": {"tested_on": "P388", "experiment": "cells", "assay_type": "functional", "conditions": "Mus musculus"}, "[9]": {"molecular_target": "T2, Heat shock factor protein 1 (Mus musculus, UniProt P38532)", "T2 sequence (P38532 whole entry)": "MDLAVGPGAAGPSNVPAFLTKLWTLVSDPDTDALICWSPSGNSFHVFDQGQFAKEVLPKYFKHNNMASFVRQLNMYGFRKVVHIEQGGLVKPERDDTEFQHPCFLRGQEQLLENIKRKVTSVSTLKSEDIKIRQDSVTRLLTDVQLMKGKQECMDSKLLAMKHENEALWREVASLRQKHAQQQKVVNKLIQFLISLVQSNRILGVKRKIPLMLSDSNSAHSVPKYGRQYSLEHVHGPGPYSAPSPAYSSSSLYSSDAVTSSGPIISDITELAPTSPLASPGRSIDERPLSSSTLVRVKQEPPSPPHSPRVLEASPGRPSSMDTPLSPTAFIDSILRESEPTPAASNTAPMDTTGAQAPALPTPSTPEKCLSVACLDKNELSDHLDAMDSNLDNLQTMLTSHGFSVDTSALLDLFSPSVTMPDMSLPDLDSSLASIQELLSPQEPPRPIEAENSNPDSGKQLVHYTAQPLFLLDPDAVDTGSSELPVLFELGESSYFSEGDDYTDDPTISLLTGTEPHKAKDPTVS", "experiment": "inhibition of MG132-induced HSE-luciferase signal, confirmation, cell-based, NIH3T3, luminescence, dose retest (AID 2382);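 further: NIH3T3 fibroblasts with HSF1-driven luciferase reporter stressed by proteasome inhibitor MG132; luminescence from HSF1-driven luciferase expression after 8 hours of MG132 stress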", "assay_type": "functional"}, "[10]": {"molecular_target": "Heat shock protein HSP 90-alpha (Homo sapiens, UniProt P07900)", "experiment": "Luminescence-based dose response biochemical high throughput screening assay for inhibitors of the Heat Shock Protein 90 (HSP90). [Related pubchem assays: 1831 (Summary AID.), 1846 (Confirmation screen.), 1789 (Primary screen.)]"}, "Streptococcus": {"tested_on": "Streptococcus", "experiment": "Group A Streptococcus viability loss, dose response, counter-screen for streptokinase expression inhibitor project, luminescence, BacTiterGlo (AID 1915);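 further: potency for reduction of bacterial viability or growth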", "assay_type": "functional, organism-based"}, "[11]": {"experiment": "Intein inhibitors as potential Tuberculosis drugs, a cytotoxicity screen. [Related pubchem assays (depositor defined):AID2221, AID2223, AID434968, AID435010, AID449749, AID449750, AID489010]", "assay_type": "functional"}, "[12]": {"molecular_target": "Dual specificity tyrosine-phosphorylation-regulated kinase 1A (Rattus norvegicus, UniProt Q63470)", "assay_type": "biochemical, Homo sapiens"}, "[13]": {"molecular_target": "Mitochondrial peptide methionine sulfoxide reductase (Bos taurus, UniProt P54149)", "sequence (P54149 whole entry)": "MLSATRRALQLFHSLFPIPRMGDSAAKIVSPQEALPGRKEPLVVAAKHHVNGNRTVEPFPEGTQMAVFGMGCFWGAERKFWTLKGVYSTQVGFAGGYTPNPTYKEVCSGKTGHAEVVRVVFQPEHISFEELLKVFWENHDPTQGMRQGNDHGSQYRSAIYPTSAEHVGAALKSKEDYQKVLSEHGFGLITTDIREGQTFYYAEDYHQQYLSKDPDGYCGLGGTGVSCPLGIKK", "assay_type": "functional"}, "[14]": {"experiment": "inhibitors of HIV Env-driven cell fusion, dose response, cherry-pick (AID 652057)", "assay_type": "functional, cell-based"}, "[15]": {"experiment": "CEM21 lymphoblast cell cytotoxicity, dose response, cytotoxicity control for viral fusion inhibitor project, CellTiter-Glo luminescence, cherry-picked (AID 652042);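 further: potency for signal decrease meaning cytotoxicity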", "assay_type": "functional, cell-based"}, "[16]": {"experiment": "ZM109 Env clade C HIV-1 fusion inhibitors, dose response, HeLa effector, CEM target cells, luciferase, cherry-pick (AID 652058)", "assay_type": "functional, cell-based"}, "[17]": {"experiment": "off-target signal loss in HeLa-CEM21 co-culture – HeLa F-luc CTL cells, cherry-picked, counter-screen for HIV-1 Env fusion inhibitor project, dose response (AID 652040);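 further: potency for signal decrease marking cytotoxic or nonspecific inhibition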", "assay_type": "functional, cell-based"}, "[18]": {"experiment": "inhibitors of clade B AD8 Env fusion, dose response, cell-based, cherry-pick (AID 652062);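 further: potency is for inhibitors of fusion seen as a drop in luminescence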", "assay_type": "functional"}}, "note": "The source made the active and inactive calls.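 Wherever CC50 is given: cells exposed to compound for 72 hours before luminescence readout.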", "data": [{"smiles": "O=C(Cc1ccccc1)NC1(O)C(=O)c2ccccc2C1=O", "values": [{"measurement": "AC50", "setting": "[1]", "value": "5.55 µM (active)"}]}, {"smiles": "CCC1CC(NS(=O)(=O)C2CC2)CC1c1ncc2cnc3[nH]ccc3n12", "note": "(configuration not stated)", "values": [{"measurement": "Ki", "setting": "[2]", "value": "> 6.31 µM (inactive)"}, {"measurement": "Ki", "setting": "[3]", "value": "0.158 µM (active)"}, {"measurement": "Ki", "setting": "[4]", "value": "> 3.16 µM (inactive)"}]}, {"smiles": "O=C(Nc1cccc(C(F)(F)F)n1)Nc1ccnc2cc(OC(F)F)ccc12", "values": [{"measurement": "Ki", "setting": "[5]", "value": "> 3.16 µM (inactive)"}, {"measurement": "Ki", "setting": "[6]", "value": "> 3.16 µM (inactive)"}]}, {"smiles": "COC(=O)c1nc(-c2ccc3c(n2)C(=O)C(=N)C(OC)=C3O)c(N)c(-c2ccc(OC)c(OC)c2O)c1C", "values": [{"measurement": "EC50", "setting": "BJ [7]", "value": "5.91 µM (active)"}, {"measurement": "EC50", "setting": "BJ [8]", "value": "4.56 µM (active)"}, {"measurement": "GI50", "setting": "P388/ADR", "value": "1.4 µM (inactive)"}, {"measurement": "GI50", "setting": "SN12K1", "value": "0.537 µM (active)"}, {"measurement": "GI50", "setting": "P388", "value": "1.49 µM (inactive)"}]}, {"smiles": "Cc1cc(C)c(S(=O)(=O)/N=C2\\C=C(Nc3ccc(C(=O)O)cc3)C(=O)c3ccccc32)c(C)c1", "values": [{"measurement": "EC50", "setting": "[9]", "value": "6.73 µM (active)"}, {"measurement": "IC50", "setting": "[10]", "value": "1.68 µM (active)"}, {"measurement": "EC50", "setting": "Streptococcus", "value": "2.6 µM (active)"}, {"measurement": "CC50", "setting": "[11]", "value": "7.89 µM (active)"}, {"measurement": "AC50", "setting": "[12]", "value": "1.8 µM (active)"}, {"measurement": "IC50", "setting": "[13]", "value": "44.8 µM (inactive)"}, {"measurement": "AC50", "setting": "[14]", "value": "12.4 µM (active)"}, {"measurement": "AC50", "setting": "[15]", "value": "9.3 µM (active)"}, {"measurement": "AC50", "setting": "[16]", "value": "6.51 µM (active)"}, {"measurement": "AC50", "setting": "[17]", "value": "17.2 µM (active)"}, {"measurement": "AC50", "setting": "[18]", "value": "9.55 µM (active)"}]}]}
